{
  "source": "paper PMC12888920",
  "about": "“MMP-9 regulates disulphide isomerase activity of TGM2 to enhance fusion glycoprotein-mediated syncytium formation of respiratory syncytial virus” (Protein & Cell, 2025)",
  "key": {"[1]": {"tested_on": "RSV A2", "assay": "High-throughput antiviral screening of protease inhibitor library against RSV A2 in HEp-2 cells", "assay_type": "cell-based, Respiratory syncytial virus", "settings": "RSV A2, MOI = 0.1, 1, 5, 10 µmol/L, 72 hpi", "text": "Figure 1. Antiviral activity of metalloproteinase inhibitors against RSV in vitro. (A) Experimental workflow for RSV A2 infection and compound treatment. (B) High-throughput screening of TargetMol L1100 library (246 host protease inhibitors targeting 10 pathways: MMPs, caspases, proteasomes, apoptosis regulators, cysteine proteases, gamma-secretase, autophagy modulators, serine proteases, DPP-4, and beta-secretase) using concentration gradients (1, 5, 10 µmol/L). HEp-2 cells were pretreated with compounds for 1 hour prior to RSV A2 infection (MOI = 0.1). Plaque formation was quantified at 72 hours post-infection (hpi) and normalized to DMSO controls. […] (G) Target overlap analysis of four MMP-9-targeting inhibitors. (H) Viral titers in supernatants of HEp-2 cells transfected with MMP-specific siRNAs (24 h) followed by RSV A2 infection (MOI = 1, 72 h). mean ± SD, n = 3. The results are representatively shown with three random experiments. The error bars indicate the mean ± SD of three technical replicates (n = 3). Statistical significance was determined by one-way ANOVA with Dunnett’s post hoc test: *P < 0.05, ***P < 0.001; ns, not significant.\n104 High-throughput antiviral screening\n105 The L1100 protease inhibitor library (246 compounds; L1100, TargetMol) was\n106 screened against RSV A2 in HEp -2 cells. Compounds (10 mM DMSO stocks) were\n107 robotically dispensed 1 h pre -infection at final concentrations of 1, 5, 10 μM.\n108 Infection rates (72 hpi) were normalized to PC786 (1 μM; positive control; HY -\n109 111813, MCE) and 0.1% DMSO vehicle. Primary hits (>50% CPE reduction + not\n110 overtly cytotoxic) underwent dose -response validation (0.00004 –10 μM) to generate\n111 EC50 curves (GraphPad Prism 8.0) .\n112 Evaluation of in vitro antiviral activity\n113 Compound inhibitor treatments: HEp-2 cells (1.3×10⁴/well) or HBEC (1.8×10⁴/well)\n114 were pretreated with test compounds for 1 h before RSV A2/B18537 infection\n115 (MOI=0.1 or 0.3). Viral inhibition was quantified at 72 hpi via FFA. Fixed cells (4%\n116 PFA) were permeabilized (0.3% Triton X-100), stained with anti-RSV-FITC\n118 Fluorescent foci were normalized to nuclear counts (ImageJ software) for EC 50\n119 determination via four-parameter logistic regression (GraphPad Prism 8.0). Data\n120 represent triplicate experiments. […]"}, "[2]": {"tested_on": "RSV A2", "assay": "BALB/c mouse model of RSV A2 infection, oral treatment", "assay_type": "in vivo, BALB/c mice", "settings": "4 dpi, 3 × 10^6 PFU RSV A2", "protocol": "To evaluate the antiviral efficacy of metalloproteinase inhibitors, we employed a BALB/c mouse model intranasally challenged with 3 × 10^6 PFU RSV A2. Mice received twice-daily oral administration of JNJ0966 (selective targeting of MMP-9 ([Scannevin et al., 2017]), 20 or 60 mg/kg [mpk]) or doxycycline hyclate (a broad-spectrum MMP inhibitor ([Patnaik et al., 2021]; [Samtani et al., 2009]), 60 or 180 mpk), beginning 2 hpi (Fig. 9A). By 4 dpi, JNJ0966 (60 mpk) and doxycycline hyclate (180 mpk) reduced lung viral titers by 2.6-fold and 2.0-fold, respectively, compared to vehicle-treated controls (Fig. 9B).\nFigure 9. Therapeutic efficacy of MMP-9 inhibitors against RSV in mice. (A) Therapeutic regimen. […] Lung viral titers quantified by FFA at 4 dpi. mean ± SD, n = 5/group. […] Statistical significance was determined by one-way ANOVA with Dunnett’s post hoc test (B, D): **P < 0.01, ***P < 0.001. […]\n314 50 μL of stop solution, absorbance at 540 nm was subtracted from the reading at\n315 450 nm by PerkinElmer Ensight reader, and analyte concentrations were calculated […]\n329 using a tissue grinder. Viral titers were quantified via FFA using 100 μL of […]\n332 Two blinded pathologists independently scored histopathological changes on a 0 -4 […]\n336 Body weights were monitored daily. […]\n337 transcriptomic analyses. Viral loads were determined as focus -forming units per gram […]"}},
  "data": [
    {"compound": "COc1ccccc1Nc1nc(-c2sc(NC(C)=O)nc2C)cs1", "note": "[JNJ0966]", "values": [
      {"measurement": "inhibition of RSV infection in HEp-2 cells", "setting": "[1]", "result": "significant dose-dependent inhibition"},
      {"measurement": "reduction of lung viral titers compared to vehicle-treated controls", "setting": "[2]; 60 mpk oral twice daily", "result": 2.6, "unit": "fold"}
    ]},
    {"compound": "Doxycycline hyclate", "values": [
      {"measurement": "inhibition of RSV infection in HEp-2 cells", "setting": "[1]", "result": "significant dose-dependent inhibition"},
      {"measurement": "reduction of lung viral titers compared to vehicle-treated controls", "setting": "[2]; 180 mpk oral twice daily", "result": 2.0, "unit": "fold"}
    ]}
  ]
}
